Experimental data as given in patent US12714711B2, “Salts of neuroceuticals and uses thereof” (priority 2020, dated 2026).
“Also recorded” adds a separate entry of the source. Where two headings read alike, the source gives them in different places.

Columns and labels:
MK-801 treated mice = test: Open field test, MK-801 induced hyper-locomotion; details: for Recovery rate (%): MK801-treated mice;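 for all read-outs here: adult male C57BL/6J mice, locomotion counted as total photobeam breaks over 60 minutes in an open field photobeam activity system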
Method: All mice were tested with open field task.
In this study, the mice were placed in a Plexiglas cage (37.5 cm×21.5 cm×18 cm) under 50-65 lux light intensity. Their spontaneous locomotor activities were measured for 60 minutes using the Photobeam Activity System (PAS)-open field (San Diego Instruments, San Diego, Calif., USA). The total number of photo beam breaks of each mouse was measured as an index of locomotor activity.
The schizophrenia-like behavior, MK801-induced hyperactivity, were tested by open field task.
All mice were tested in an open field task.
The schizophrenia-like behavior, NMDA-hypofunction-induced hyperactivity, were tested by open field task.
The amount of paliperidone administered to Groups 3 and 4 was equal. The schizophrenia-like behavior, MK801-induced hyperactivity, were tested by open field task.
The amount of paliperidone administered to Groups 3 and 4 was equal. The schizophrenia-like behavior, NMDA-hypofunction-induced hyperactivity, were tested by open field task.

[1] = Stress study at 40° C./75% relative humidity in a closed system, HPLC analysis; details: 40° C./75% RH, 30 days, in the presence of free benzoic acid
[2] = Water solubility at 25° C.; details: 25° C.
[3] = fasting glucose
Method: The testing compounds were administered to mice either through intraperitoneal (i.p.) injection or oral gavage before analyzing blood glucose levels.
For the acute study, two cohorts of mice were used.
For repeated-dose study, mice were randomly assigned into five groups as listed below. • Group 1: Vehicle control • Group 2: Clz (3 mg/kg) • Group 3: Clz:NA 1:1 salt (4.13 mg/kg) • Group 4: Clz (10 mg/kg) • Group 5: Clz:NA 1:1 salt (13.77 mg/kg)
The night before blood glucose levels were measured, the mice were fasted. Blood glucose levels were measured with a portable glucose meter (Contour® Plus, Bayer AG, Leverkusen, Germany) After waiting for 60 min, the treatments indicated above were administered. FIG. 75 illustrates the experimental design of this study.
Two cohorts of mice were used in this study. In cohort 1, mice were randomly assigned into the five groups listed below: • Group 1: Vehicle control • Group 2: NA (3.94 mg/kg) • Group 3: Olz (10 mg/kg) • Group 4: Olz (10 mg/kg)+NA (3.94 mg/kg) • Group 5: Olz:NA 1:1 salt (13.94 mg/kg)
Dosing occurred 60 min prior to measuring blood glucose levels.
In cohort 2, mice were randomly assigned into the five groups listed below: • Group 1: Vehicle control • Group 2: Olz (5 mg/kg) • Group 3: Olz:NA 1:1 salt (6.97 mg/kg) • Group 4: Olz (10 mg/kg) • Group 5: Olz:NA 1:1 salt (13.94 mg/kg)
The night before the glucose tolerance test, the mice fasted. Blood glucose levels were measured in whole blood that was collected from the mouse's tail vein. Glucose levels were measured with a portable glucose meter (Contour® Plus, Bayer AG, Leverkusen, Germany), with the measurement occurring 60 min after the mice were dosed with the treatments indicated above Immediately following the glucose measurement, all mice were subjected to a glucose tolerance test, which involved an intraperitoneal challenge injection of 1 g/kg of glucose, followed by measuring blood glucose levels at 0, 30, 60 and 120 minutes.

[4] = mice
Method: For the acute study, mice were randomly assigned into one of the five groups listed below. • Group 1: Vehicle control • Group 2: NA (3.77 mg/kg) • Group 3: Clz (10 mg/kg) • Group 4: Clz (10 mg/kg)+NA (3.77 mg/kg) • Group 5: Clz:NA 1:1 salt (13.77 mg/kg)
For the repeated dose study, two cohorts of mice were used. In cohort 1, mice were randomly assigned into one of the three groups listed below. • Group 1: Vehicle control • Group 2: Clz (10 mg/kg) • Group 3: Clz:NA 1:1 salt (13.77 mg/kg)
In cohort 2, the mice were randomly assigned into one of the three groups listed below. • Group 1: Vehicle control • Group 2: Clz (3 mg/kg) • Group 3: Clz:NA 1:1 salt (4.13 mg/kg)
To assess glucose tolerance, mice were fasted overnight on day 18 (for cohort 1) and on day 35 (for cohort 2), and their blood glucose response to i.p. administration of glucose (2 g/kg) was determined. Blood glucose levels were assessed in the whole blood collected from the tail vein, 60 min after drug administration Immediately following this glucose measurement, all mice were subjected to a glucose tolerance test by receiving an intraperitoneal challenge injection of 2 g/kg of glucose, and blood glucose levels were measured at 0, 30, 60 and 120 minutes.
Mice used in this study were randomly assigned into one of the six following groups: • Group 1: Vehicle control • Group 2: Clz (10 mg/kg) • Group 3: Clz (10 mg/kg)+enriched TA (22.5 mg/kg) • Group 4: Clz (10 mg/kg)+enriched TA (11.3 mg/kg) • Group 5: Clz:enriched TA 2:1 salt (32.5 mg/kg) • Group 6: Clz:enriched TA 4:1 salt (21.3 mg/kg)
One day before the glucose tolerance test, the mice fasted overnight and the blood glucose levels were measured in whole blood collected from the tail vein. Glucose levels were measured using a portable glucose meter (Contour® Plus, Bayer AG, Leverkusen, Germany) 60 min after they were acutely administered with the treatments indicated above Immediately following this glucose measurement, all mice were subjected to a glucose tolerance test by receiving an intraperitoneal challenge injection of 2 g/kg of glucose. Blood glucose levels were measured at 30, 60 and 120 minutes.
Two cohorts of mice were used in this study. […]

CN1CCN(C2=Nc3cc(Cl)ccc3Nc3ccccc32)CC1.O=C(O)c1ccccc1 [clozapine:benzoic acid 1:1 salt]
Recovery rate (%) (MK-801 treated mice; dosage of clozapine 1 mg/kg (benzoic acid salt study)): 85.8%
Degradation during the stress study (HPLC before vs after) [1]: did not degrade; also recorded: more stable than clozapine
water solubility [2]: 1580 µg/mL

Cc1cc2c(s1)Nc1ccccc1N=C2N1CCN(C)CC1.O=C(O)c1cccnc1 [olanzapine:nicotinic acid 1:1 salt]
Recovery rate (%) (MK-801 treated mice; dosage of olanzapine 0.1 mg/kg): 47.9%
locomotor activity in MK-801 treated mice (MK-801 treated mice; oral olanzapine 0.1 mg/kg or nicotinic acid salt 0.14 mg/kg, MK-801 0.2 mg/kg i.p.): significant decrease in MK-801-induced hyper-locomotion
Rate of reduce olanzapine-induced hyperglycemia (%) ([3]; acute i.p., dosage of olanzapine 5 mg/kg): 57.6%
Rate of reduce olanzapine-induced hyperglycemia (%) ([3]; acute i.p., dosage of olanzapine 10 mg/kg): 38.4%
Rate of reduce olanzapine-induced hyperglycemia (%) ([3]; acute oral, dosage of olanzapine 10 mg/kg): 50.5%
blood glucose levels during glucose tolerance test compared to vehicle ([4]; single i.p. dose, olanzapine 5 mg/kg or salt 6.97 mg/kg, glucose 1 g/kg i.p.): significantly higher than vehicle control group at 120 min after glucose challenge
blood glucose levels during glucose tolerance test compared to vehicle ([4]; single i.p. dose, olanzapine 10 mg/kg or salt 13.94 mg/kg, glucose 1 g/kg i.p.): significantly higher than vehicle control group at 120 min after glucose challenge and remained lower than the olanzapine (10 mg/kg) group at all time points
blood glucose levels during glucose tolerance test compared to vehicle ([4]; single oral dose, olanzapine 10 mg/kg, NA 3.94 mg/kg, mixture, or salt 13.94 mg/kg): high glucose levels only after 60 mins, before returning to normal glucose levels 120 min post glucose challenge
